From patent US9211325B2, “Peptide adjuvants” (priority 2008, dated 2015) come the findings set out here.

What all share (set-up): species or system BALB/c mice
Settings in all cases: mouse, in vivo

The test system of assay [1] is HA (peptide pools derived from HA).
Assay [2] deals with homologous influenza virus isolate used for immunization (MDCK cells, CPE).
Assay [3] concerns Total anti-HBS antibodies.
In assay [4] the test system is Total anti-influenza IgG antibodies.

As for “EMWCM (Short peptide sequence not known to occur in nature)”, the “T-cell response (ELISPOT), FIG. 18” value in assay [1] is reported as “did not”. Regarding “CKWRC (Short peptide sequence not known to occur in nature) [5mer3]”, the “Neutralizing antibody response, FIG. 2” value in assay [2] was “did not cause a strong neutralizing antibody response”. As for “free peptide (KWCEC; Short peptide sequence not known to occur in nature)”, in assay [3], the “Total anti-HBS antibodies (ELISA) response” value is “strong response at both 6 and 8 weeks post immunization”. In assay [4], the “antibody response (ELISA) after fluviral vaccination” value is “stronger response at both 6 and 8 weeks post immunization”. On to “KYMCW (Short peptide sequence not known to occur in nature) [5mer7]”, for which the “Neutralizing antibody response, FIG. 2” value in assay [2] is recorded as “caused a significant antibody response”.

On to “CYWWW (Short peptide sequence not known to occur in nature)”, for which, in assay [1], the “T-cell response (ELISPOT), FIG. 18” value is on record as “generated a significant T-cell response”. Take “CHKWD (Short peptide sequence not known to occur in nature) [5mer1]”: in assay [2], the “Neutralizing antibody response, FIG. 2” value is listed as “did not cause a strong neutralizing antibody response”. As to “KWCEC (Short peptide sequence not known to occur in nature) [5mer4]”, in assay [1], the “T cell response (ELISPOT) compared with other adjuvants, FIG. 16” value was “stronger than that generated with alum alone and comparable to that generated by CpG”. In addition, the “Neutralizing antibody response, FIG. 2” value in assay [2] was “caused a significant antibody response”. As to “CYYWC (Short peptide sequence not known to occur in nature)”, the “T-cell response (ELISPOT), FIG. 18” value in assay [1] is listed as “below the baseline of HA alone”. With “WHKCE (Short peptide sequence not known to occur in nature) [5mer2]”, in assay [2], the “Neutralizing antibody response, FIG. 2” value is “did not cause a strong neutralizing antibody response”. Turning to “EHWCM (Short peptide sequence not known to occur in nature)”, the “T-cell response (ELISPOT), FIG. 18” value in assay [1] is “generated a large T-cell response”.
